Measurements published in patent US20250197428A1, “INHIBITORS OF KIF18A AND USES THEREOF” (ACCENT THERAPEUTICS, INC., priority 2022, published 2025).
Like-named read-outs stand apart in the source and are kept apart here.

Legend:
OVCAR-3 cells = assay: In vitro anti-proliferative activity assay in cancer cell line OVCAR-3 (CellTiter-Glo, 4- or 7-day); format: cell-based; details: Homo sapiens, read-out: OVCAR-3 cellular antiproliferation assay IC50
KIF18A = KIF18A (Homo sapiens (Human), UniProt Q8NI77); assay: KIF18A Biochemical Assay (ATPase, ADP-Glo)
[1] = OVCAR-3, assay duration not indicated

Sequence of KIF18A (Q8NI77 1-367): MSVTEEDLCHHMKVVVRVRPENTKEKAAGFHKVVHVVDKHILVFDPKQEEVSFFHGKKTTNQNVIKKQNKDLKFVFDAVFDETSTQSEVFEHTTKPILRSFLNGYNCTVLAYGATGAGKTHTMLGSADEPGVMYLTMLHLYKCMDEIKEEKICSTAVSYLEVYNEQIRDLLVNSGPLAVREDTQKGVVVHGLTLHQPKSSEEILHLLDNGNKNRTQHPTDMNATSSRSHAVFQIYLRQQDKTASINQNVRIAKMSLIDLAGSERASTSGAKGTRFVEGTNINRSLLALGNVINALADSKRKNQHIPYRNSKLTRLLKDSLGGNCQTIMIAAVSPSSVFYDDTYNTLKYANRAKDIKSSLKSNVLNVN
Sequence of KIF18A (P02550 whole entry partner): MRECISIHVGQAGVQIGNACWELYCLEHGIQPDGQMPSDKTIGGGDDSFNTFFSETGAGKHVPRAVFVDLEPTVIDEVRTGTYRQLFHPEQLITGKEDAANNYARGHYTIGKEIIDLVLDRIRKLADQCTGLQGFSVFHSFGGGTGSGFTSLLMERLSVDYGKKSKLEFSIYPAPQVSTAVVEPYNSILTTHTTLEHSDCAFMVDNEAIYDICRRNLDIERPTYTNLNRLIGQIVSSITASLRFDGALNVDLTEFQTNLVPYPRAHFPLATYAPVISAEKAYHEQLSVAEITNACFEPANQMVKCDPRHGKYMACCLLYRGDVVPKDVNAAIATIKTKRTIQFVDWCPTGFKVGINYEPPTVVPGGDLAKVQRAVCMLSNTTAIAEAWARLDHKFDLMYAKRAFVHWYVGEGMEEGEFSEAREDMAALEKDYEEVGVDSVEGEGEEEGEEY
Sequence of KIF18A (P02554 whole entry partner): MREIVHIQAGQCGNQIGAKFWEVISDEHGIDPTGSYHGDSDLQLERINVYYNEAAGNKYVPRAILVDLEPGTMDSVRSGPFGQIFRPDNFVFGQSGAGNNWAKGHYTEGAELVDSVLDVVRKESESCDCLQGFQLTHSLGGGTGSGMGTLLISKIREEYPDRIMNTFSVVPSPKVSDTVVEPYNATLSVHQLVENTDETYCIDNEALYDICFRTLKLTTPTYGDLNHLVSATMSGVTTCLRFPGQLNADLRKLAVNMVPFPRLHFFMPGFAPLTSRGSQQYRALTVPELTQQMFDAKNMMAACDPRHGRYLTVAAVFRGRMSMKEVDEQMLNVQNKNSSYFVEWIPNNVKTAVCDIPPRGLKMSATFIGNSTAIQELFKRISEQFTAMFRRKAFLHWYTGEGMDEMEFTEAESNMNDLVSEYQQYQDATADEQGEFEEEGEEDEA

Row | SMILES | IC50 (OVCAR-3 cells; OVCAR-3, 168 h, 7-day assay) [nM] | IC50 (KIF18A) [nM] | IC50 (OVCAR-3 cells; OVCAR-3, 96 h, 4-day assay) [nM] | IC50 (OVCAR-3 cells; [1]) [nM]
1 | Cc1cc(NC(=O)c2c(F)cc(NS(=O)(=O)CCO)cc2N2CC[C@]3(C)C[C@@H]3C2)nc(N2CCC(F)(F)CC2)n1 (single isomer, unassigned) [Example 31a] | 100 to 500 | – | – | –
2 | Cc1cc(NC(=O)c2c(F)cc(NS(=O)(=O)CCO)cc2N2CC[C@@]3(C)C[C@H]3C2)nc(N2CCC(F)(F)CC2)n1 (single isomer, unassigned) [Example 31b] | 100 to 500 | – | – | –
3 | COC[C@]12CCN(c3cc(NS(=O)(=O)CCO)ccc3C(=O)Nc3cc(C)nc(N4CCC(F)(F)CC4)n3)C[C@H]1C2 (single isomer, unassigned) [Example 49a] | 100 to 500 | < 100 | – | –
4 | Cc1cc(NC(=O)c2ccc(NS(=O)(=O)CCO)cc2N2CC[C@]3(F)CC[C@@H]3C2)nc(N2CCC(F)(F)CC2)n1 (single isomer, unassigned) [Example 50a] | 100 to 500 | < 100 | – | –
5 | C[Si]1(C)CCN(c2cc(NS(=O)(=O)CCO)ccc2C(=O)Nc2cccc(N3CCC(F)(F)CC3)n2)CC1 [Example 3, N-(6-(4,4-difluoropiperidin-1-yl)pyridin-2-yl)-2-(4,4-dimethyl-1,4-azasilinan-1-yl)-4-((2-hydroxyethyl)sulfonamido)benzamide] | – | < 100 | < 100 | –
6 | C[Si]1(C)CCN(c2cc(NS(=O)(=O)CCO)c(F)cc2C(=O)Nc2ccnc(N3CCC(F)(F)CC3)n2)CC1 [Example 13] | – | < 100 | 500 to 1000 | –
7 | C[Si]1(C)CCN(c2cc(NS(=O)(=O)CCO)ccc2C(=O)Nc2ccnc(C3CC3)n2)CC1 [Example 15] | – | < 100 | > 1000 | –
8 | CC1CN(c2cccc(NC(=O)c3ccc(S(=O)(=O)NCCO)cc3N3CC[Si](C)(C)CC3)n2)CCO1 (stereo not shown) [Example 18] | – | < 100 | < 100 | –
9 | CC1CN(c2cccc(NC(=O)c3ccc(NS(=O)(=O)CCO)cc3N3CC[Si](C)(C)CC3)n2)CCO1 (stereo not shown) [Example 19] | – | < 100 | < 100 | –
10 | C[Si]1(C)CCN(c2cc(NS(=O)(=O)CCO)ccc2C(=O)Nc2cccc(S(=O)(=O)C3CCCC3)n2)CC1 [Example 22] | – | 100 to 500 | < 100 | –
11 | C[Si]1(C)CCN(c2cc(NS(=O)(=O)CCO)ccc2NC(=O)c2ccnc(N3CCC(F)(F)CC3)n2)CC1 [Example 23] | – | 100 to 500 | 100 to 500 | –
12 | CC(C)(C)NS(=O)(=O)c1cccc(NC(=O)c2ccc(S(=O)(=O)C3(C)COC3)cc2N2CC[Si](C)(C)CC2)c1 [Example 24] | – | – | 100 to 500 | –
13 | O=C(Nc1ccnc(N2CCC(F)(F)CC2)n1)c1ccc2c(cnn2CCO)c1N1CCC2(CC1)CC2 [Example 25] | – | > 1000 | – | –
14 | Cc1cc(NC(=O)c2ncc(NS(=O)(=O)CCO)cc2N2CC[Si](C)(C)CC2)nc(N2CCC(F)(F)CC2)n1 [Example 26] | – | < 100 | 100 to 500 | –
15 | C[Si]1(C)CCN(c2cnccc2C(=O)Nc2cccc(S(=O)(=O)N3CCC(F)(F)CC3)c2)CC1 [Example 27] | – | > 1000 | > 1000 | –
16 | Cc1cc(NC(=O)c2ccc(NS(=O)(=O)CCO)cc2N2CC[C@]3(C(F)F)C[C@@H]3C2)nc(N2CCC(F)(F)CC2)n1 [Example 29a, 2-((1S,6R)-6-(difluoromethyl)-3-azabicyclo[4.1.0]heptan-3-yl)-N-(2-(4,4-difluoropiperidin-1-yl)-6-methylpyrimidin-4-yl)-4-((2-hydroxyethyl)sulfonamido)benzamide] | – | < 100 | < 100 | –
17 | Cc1cc(NC(=O)c2ccc(NS(=O)(=O)CCO)cc2N2CCC3(CO)CC3C2)nc(N2CCC(F)(F)CC2)n1 (stereo not shown) [Example 30, N-(2-(4,4-difluoropiperidin-1-yl)-6-methylpyrimidin-4-yl)-4-((2-hydroxyethyl)sulfonamido)-2-(6-(hydroxymethyl)-3-azabicyclo[4.1.0]heptan-3-yl)benzamide] | – | 100 to 500 | > 1000 | –
18 | Cc1cc(NC(=O)c2ccc(NS(C)(=O)=O)cc2N2CC[C@@]3(C)C[C@H]3C2)nc(N2CCC(F)(F)CC2)n1 [Example 32] | – | < 100 | > 1000 | –
19 | Cc1cc(NC(=O)c2ccc(NS(C)(=O)=O)cc2N2CC[C@]3(C)C[C@@H]3C2)nc(N2CCC(F)(F)CC2)n1 [Example 33] | – | < 100 | 100 to 500 | –
20 | Cc1cc(NC(=O)c2c(F)cc(NS(=O)(=O)CCO)cc2N2CC[C@]3(C)C[C@@H]3C2)nc(N2CCC(F)(F)CC2)n1 [Example 38] | – | < 100 | – | 100 to 500
21 | Cc1cc(NC(=O)c2ccc(NS(=O)(=O)CCO)cc2N2CC[C@@]3(CO)C[C@H]3C2)nc(N2CCC(F)(F)CC2)n1 [Example 39] | – | 100 to 500 | > 1000 | –
22 | Cc1cc(NC(=O)c2ccc(NS(=O)(=O)CCO)cc2N2CC[C@]3(CO)C[C@@H]3C2)nc(N2CCC(F)(F)CC2)n1 [Example 40] | – | > 1000 | > 1000 | –
23 | Cc1cc(NC(=O)c2ccc(NS(=O)(=O)CCO)cc2N2CCC3(C(F)F)CC3C2)nc(N2CCC(F)(F)CC2)n1 (stereo not shown) [Example 41] | – | < 100 | – | < 100
24 | Cc1cc(NC(=O)c2ccc(NS(=O)(=O)NCCO)cc2N2CC[C@@]3(C)C[C@H]3C2)nc(N2CCC(F)(F)CC2)n1 [Example 42] | – | < 100 | > 1000 | –
25 | Cc1cc(NC(=O)c2ccc(NS(=O)(=O)NCCO)cc2N2CC[C@]3(C)C[C@@H]3C2)nc(N2CCC(F)(F)CC2)n1 [Example 43] | – | < 100 | > 1000 | –
